Series [1] deals with GFP-labeled tumor cells expressing cognate antigen. Put plainly: Co-culture killing assay of several CAR-SMASh T cells in presence of drug. It is filed as cell-based. As to conditions: 3 μM asunaprevir. The procedure: (§1) CAR T cells were co-cultured with indicated cancer cell lines, engineered to constitutively express green fluorescent protein, on day 10 post activation in 96-well plates at a ratio of 1:1 (50,000 cells each). Cancer cell fluorescence was monitored by time-lapse microscopy. Total integrated fluorescence intensity was calculated and plotted as a function of time. Co-culture supernatant was harvested after 24 hours of co-culture and analyzed for the presence of cytokine. Cytokine in culture supernatant was quantified using the Human IL-2 ELISA MAX™ and Human IFN-γ ELISA MAX™ Deluxe kits (BioLegend).

The subject of series [2] is markers of T cell exhaustion. The series is described as follows: Flow cytometry of activation/exhaustion-associated markers on CAR-SMASh T cells. It is filed as cell-based, human. From the text: Asunaprevir (ASV), danoprevir (DPV), simeprevir (SPV), and grazoprevir (GPV) were purchased from ApexBio. Cell surface markers were stained with mouse monoclonal antibodies targeting PD-1 (PE-Cy7, eBioscience), LAG3 (PE, eBioscience), Tim-3 (BV 510, BioLegend), and B7-H3 (PE, R&D Systems). CAR molecules were stained with recombinant B7-H3 Fc (R&D Systems), protein L (Pierce Protein Biology), 1A7 anti-idiotype antibody, or FMC63 anti-idiotype antibody 136.20.1 conjugated in house using DyLight 650 Antibody Labeling Kit (Thermo Fisher). T cells were cultured in AIM V (Thermo Fisher) supplemented with 5% fetal bovine serum (Gibco), 100 U/mL rhIL-2 (PeproTech), 2 mM L-glutamine, 10 mM HEPES, 100 U/mL penicillin, and […] streptomycin (Invitrogen). Cancer cell lines were cultured in RPMI (Thermo Fisher) supplemented with 10% fetal bovine serum, 2 mM L-glutamine, 10 mM HEPES, 100 U/mL penicillin, and […] streptomycin.
(§2) Flow cytometry of samples was performed on an LSR Fortessa (BD Bioscience) and data were analyzed using FlowJo software. B7H3 CARs were detected using B7H3 Fc. GD2 and CD19 CARs were detected by 1A7 and FMC63 anti-idiotype antibody, respectively. CD 22 CARs were detected using biotinylated protein L and APC conjugated streptavidin. FACS plots were gated on live single T cells. Untransduced T cells (“Mock”) were used as controls.
(§3) CAR T cells were incubated in the indicated concentration of drug in T cell culture media (above) until analysis by FACS. Media was changed every 48-72 hours. Removal of drug was achieved by washing CAR T cells in T cell culture media 3 times.

Series [3] has as its system B7H3-expressing Nalm6 GFP. Put plainly: Cytokine in co-culture supernatant (IFN-γ ELISA). It is filed as cell-based. Here is the method:
as §1

For series [4], the system named is HCV NS3 protease. As to conditions: for CAR expression after removal of the protease inhibitor by washing / CAR expression after incubation with protease inhibitor: B7H3 CAR-SMASh. The procedure: as §2, §3
The test system of series [5] is B7H3 (low)-expressing Nalm6 GFP tumor cells. The series is described as follows: Co-culture killing assay, low antigen (tumor GFP fluorescence). It is filed as cell-based. The settings on record: 3 μM, various amounts of time, B7H3 (low) targets. The procedure: as §1
The subject of series [6] is B7H3-expressing Nalm6 GFP tumor cells. Put plainly: Co-culture killing assay (tumor GFP fluorescence). It is filed as cell-based. The settings on record: for cytotoxicity of B7H3 CAR-SMASh T cells incubated with drug prior to co-culture: 3 μM, various amounts of time (from 24 h). Here is the method:
Cancer cell fluorescence was monitored by time-lapse microscopy. Total integrated fluorescence intensity was calculated and plotted as a function of time. […] Cytokine in culture supernatant was quantified using the Human IL-2 ELISA MAX™ and Human IFN-γ ELISA MAX™ Deluxe kits (BioLegend).

Series [7] deals with T cells. Put plainly: T cell aggregation during in vitro culture (microscope images). Format: cell-based. As to conditions: CAR-SMASh T cells incubated with inhibitor.
For series [8], the system named is CAR expression on T cells in vivo. The series is described as follows: In vivo CAR expression by nanoluciferase imaging. As to conditions: MED8A mice, 50 mg/kg grazoprevir+25 mg/kg ritonavir two to three times per day by oral gavage. The procedure:
In a further study, real-time expression of a C-terminal nanoluciferase (nLuc) domain-containing CAR was monitored in vivo by nanoluciferase-based imaging.
Next, in vivo CAR expression in the mice described in FIG. 27 was assessed by nanoluciferase imaging. Mice were injected with 200 μL of Nano-Glo substrate that was diluted 40× in PBS. After a 6-minute incubation period, the mice were imaged on an IVIS Spectrum imager.

For series [9], the system named is Nalm6 leukemia cells expressing B7H3 and firefly luciferase. The series is described as follows: In vivo Nalm6 leukemia model, bioluminescence imaging. The settings on record: 50 mg/kg grazoprevir+25 mg/kg ritonavir three times per day by oral gavage. More on the design: species or system NSG mice. Here is the method:
NSG mice were infused with 10^6 Nalm6 leukemia cells expressing B7H3 and firefly luciferase. Four days later, mice were infused with 8×10^6 B7H3-BBz-SMASh CART cells or mock untransduced control cells. Mice that received B7H3-BBz-SMASh CAR T cells were either administered drug (50 mg/kg grazoprevir+25 mg/kg ritonavir) or vehicle (50% polyethylene glycol 300) three times per day by oral gavage. Bioluminescence imaging was used to follow the expansion of the firefly luciferase-expressing Nalm6 cells.
Assessed in this example was whether B7H3 CAR-nanoluciferase-SMASh CAR-T cell activity could be controlled in vivo against Nalm6 leukemia cells. NSG mice were infused with 10^6 Nalm6 leukemia cells expressing B7H3 antigen and firefly luciferase by tail vein injection. Four days later, mice were infused with 8×10^6 B7H3 CAR-nanoluciferase-SMASh CAR-T cells or mock un-transduced control T cells by tail vein injection. Mice in the “CAR OFF” group were administered 50 mg/kg grazoprevir+25 mg/kg ritonavir (a pharmacokinetic enhancer of grazoprevir) two to three times per day by oral gavage. Bioluminescence imaging was used to follow the expansion of the firefly luciferase-expressing Nalm6 cells.

Where [10] appears, read: loss of CAR expression and exhaustion markers (FIG. 6, FIG. 9).

For “GD2 CAR-SMASh: GD2 scFv (14G2A) CAR with 4-1BB, CD3 zeta and C-terminal SMASh tag (SEQ ID NO: 11)”, in [1], the “cytotoxicity against target cells in the presence of drug (off state)” value is on record as “significant cytotoxicity”.
Regarding `C=C[C@@H]1C[C@]1(NC(=O)[C@@H]1C[C@@H](Oc2ncc(OC)c3ccc(Cl)cc23)CN1C(=O)[C@@H](NC(=O)OC(C)(C)C)C(C)(C)C)C(=O)NS(=O)(=O)C1CC1` [asunaprevir, Asunaprevir], the “expression of activation/exhaustion markers” value in series [2] (CAR-SMASh T cells, 3 μM) was “reduces expression of activation/exhaustion markers”. Also, the “relationship between inhibitor and expression of CAR molecules and activation/exhaustion-associated markers” value in [2] (FIG. 9) was “dose-dependent relationship”. Moreover, in series [2] (setting [10]), the “concentration at which maximal effect was observed” value is 1 µM and the “concentration at which near maximal effect was observed” value stood at 0.3 µM. In addition, the “time to restoration of interferon production after removal” value in series [3] is reported as no more than 24 h. In series [3] (drug-induced inhibition of CAR expression), the “interferon production in response to antigen expressing targets” value is reported as “very low levels”. For the same compound, in [4] (3 μM, various amounts of time), the “CD19 CAR-SMASh expression after incubation with protease inhibitor” value is recorded as “decrease in CD19 CAR-SMASh expression”, the “CD22 CAR-SMASh expression after incubation with protease inhibitor” value is given as “decrease in CD22 CAR-SMASh expression”, the “GD2 CAR-SMASh expression after incubation with protease inhibitor” value is “decrease in GD2 CAR-SMASh expression” and the “CAR expression after incubation with protease inhibitor” value is on record as “decrease in CAR expression”. Moreover, the “CAR expression after removal of the protease inhibitor by washing” value in series [4] was “recovery of CAR expression”. Moreover, the “time to full CAR re-expression after removal of drug” value in series [4] (B7H3 SMASh-CAR T cells) is no more than 72 h. In [4] (B7H3 SMASh-CAR T cells, 3 μM), the “time at which reduction in CAR expression was maximal” value is 96 h and the “time within which reduction in CAR expression occurred” value is no more than 24 h. Further, the “reduction of CAR expression” value in series [4] (B7H3 SMASh-CAR T cells, ex vivo, 3 μM (FIG. 4)) is on record as “greater than 90%”. In addition, in series [4] (B7H3 SMASh-CAR T cells, within 24 h of removal), the “CAR re-expression after removal of drug” value is on record as “approximately 1.5 log”. Further, the “cytotoxicity of B7H3 CAR-SMASh T cells incubated with drug prior to co-culture” value (from here on “cytotoxicity … with drug prior to co-culture”) in series [5] was “reduced cytotoxicity”. The “cytotoxicity … with drug prior to co-culture” value in [6] is reported as “reduced cytotoxicity”. For the same compound, the “cytotoxicity … with drug prior to co-culture” value in series [6] (listed as asumaprevir) was “significant reduction in killing”. In addition, the “cytotoxicity of B7H3 CAR-SMASh T cells after drug removal prior to co-culture” value in series [6] (drug removed for various amounts of time) is given as “potent killing of tumor targets indistinguishable from constitutively expressed, non-regulated CAR T cells”. Moreover, the “T cell aggregation during in vitro culture” value in [7] is listed as “resistant to aggregation”.
`COc1ccc2c(O[C@@H]3C[C@H]4C(=O)N[C@]5(C(=O)NS(=O)(=O)C6CC6)C[C@H]5/C=C\CCCCN(C)C(=O)[C@@H]4C3)cc(-c3nc(C(C)C)cs3)nc2c1C` [simeprevir]: the “CAR expression after removal of the protease inhibitor by washing” value in [4] is “recovery of CAR expression”. For the same compound, in series [4] (3 μM, various amounts of time), the “CAR expression after incubation with protease inhibitor” value is reported as “decrease in CAR expression”.
For `C=C[C@@H]1C[C@]1(NC(=O)[C@@H]1C[C@@H]2CN1C(=O)[C@H](C(C)(C)C)NC(=O)O[C@@H]1C[C@H]1CCCCCc1nc3ccc(OC)cc3nc1O2)C(=O)NS(=O)(=O)C1CC1.O` [grazoprevir], the “in vivo CAR expression (nanoluciferase imaging)” value in series [8] is listed as “diminished”. Further, in series [9], the “cytotoxic capacity of B7H3-BBz-SMASh CAR T cells in vivo” value is recorded as “dramatically reduces the cytotoxic capacity”.
